{
  "source": "the OPERA property sets (Mansouri et al. 2018)",
  "data": [
    {"values": [
      {"smiles": "CCCCCCCCCCCCCCCCCC[n+]1ccccc1.[I-]", "logP": 3.68},
      {"smiles": "O=NN(CCCl)C(=O)NC(CCC(=O)O)C(=O)O", "note": "(stereo unspecified)", "logP": 0.6},
      {"smiles": "Nc1ncnc2ccccc12", "logP": 1.28},
      {"smiles": "CCCCOc1cccc(N2C(N)=NC(N)=NC2(C)C)c1", "logP": 2.03},
      {"smiles": "Cc1[nH]c(=O)n(OCC(C)C)c(=O)c1Br", "logP": 1.23},
      {"smiles": "NC(=O)Nc1cnc2ccccc2n1", "logP": 1.3},
      {"smiles": "CCOn1c(=O)[nH]c(C)c(Br)c1=O", "logP": 0.11},
      {"smiles": "CCOC(=O)C(=Cc1ccc(OC)cc1)C(=O)OCC", "logP": 3.28},
      {"smiles": "CC(=O)Cn1ccnc1[N+](=O)[O-]", "logP": -0.34},
      {"smiles": "CSC(C)=NOC(=O)N(C)SN(C)C(=O)OC1CCCCC1", "logP": 3.6},
      {"smiles": "Cc1ccc(NC(=O)CN2CCCCC2)cc1", "logP": 2.96},
      {"smiles": "COc1cc(Cc2cnc(N)nc2N)ccc1N", "logP": 0.49},
      {"smiles": "CCC(=O)CC(=O)CC", "logP": 1.12},
      {"smiles": "CON(C)C(=O)Nc1cccc(OCc2ccccc2)c1", "logP": 3.11},
      {"smiles": "Oc1ccnc2c(O)cccc12", "logP": 0.62},
      {"smiles": "NC1=NC(=O)C(=Cc2ccc([N+](=O)[O-])o2)S1", "logP": 1.09},
      {"smiles": "CC(=O)N(C)/N=N/c1ccc(F)cc1", "logP": 2.77},
      {"smiles": "CC(=O)OCC1=C(C(=O)O)N2C(=O)[C@@H](NC(=O)CBr)[C@H]2SC1", "logP": -0.7},
      {"smiles": "CCC(C)NC(=O)C=C(C)c1ccc(Cl)cc1", "note": "(stereo unspecified)", "logP": 3.92},
      {"smiles": "COc1ccc(Cc2cnc(N)nc2N)cc1Br", "logP": 1.88},
      {"smiles": "O=C(O)COc1cccc(S(=O)(=O)C(F)(F)F)c1", "logP": 2.19},
      {"smiles": "COc1cc(Cc2cnc(N)nc2N)cc(OC)c1C(=O)N(C)C", "logP": -0.21},
      {"smiles": "CN(C)/N=N/c1ccccc1C(=O)NC#N", "logP": 0.8},
      {"smiles": "CCCOn1c(=O)cc(C)[nH]c1=O", "logP": 0.3},
      {"smiles": "CC(C)(C)C(=O)C(C#N)=NNc1cccc(Cl)c1", "logP": 4.62},
      {"smiles": "CCc1cccc(CC)c1NC1=NCCN1", "logP": 2.48},
      {"smiles": "CC1=Nc2c(C)cccc2S(=O)(=O)N1", "logP": 0.52},
      {"smiles": "O=S1(=O)NC(C2CCCC2)=Nc2ccccc21", "logP": 1.83},
      {"smiles": "CCOP(N)(=O)SCC", "note": "(stereo unspecified)", "logP": 0.15},
      {"smiles": "CC(=O)OCCOC(=O)c1ccccc1", "logP": 1.85},
      {"smiles": "Nc1nc(N)nc(-c2ccc(Cl)cc2Cl)n1", "logP": 2.07},
      {"smiles": "CNC(=O)C(NC(C)=O)C(C)C", "note": "(stereo unspecified)", "logP": -0.35},
      {"smiles": "O=NN(CCCl)C(=O)NC1CSCSC1", "logP": 2.08},
      {"smiles": "OCC1OC(Oc2ccc3ccccc3c2)C(O)C(O)C1O", "note": "(stereo unspecified)", "logP": 0.76},
      {"smiles": "Cc1c([N+](=O)[O-])cc(C(N)=O)cc1[N+](=O)[O-]", "logP": 0.68},
      {"smiles": "CCCC(=O)N(C)SN(C)C(=O)Oc1cccc2c1OC(C)(C)C2", "logP": 3.8},
      {"smiles": "OCC(CO)(CO)CBr", "logP": -0.7},
      {"smiles": "Cc1ccc(NC2=NCCN2)c(C)c1", "logP": 1.79},
      {"smiles": "COCN1C(=O)CN=C(c2ccccc2)c2cc(Cl)ccc21", "logP": 2.86},
      {"smiles": "CSc1ccccc1/N=N/N(C)C", "logP": 3.13},
      {"smiles": "CC1NC(=Nc2ncc([N+](=O)[O-])s2)OC1(C)C", "note": "(stereo unspecified)", "logP": 1.88},
      {"smiles": "CCOc1ncnc(NS(=O)(=O)c2ccc(N)cc2)c1OC", "logP": 1.18},
      {"smiles": "N#Cc1ccc2nccnc2c1", "logP": 1.01},
      {"smiles": "CNC(=O)ON=Cc1cccc(Oc2ccccc2)c1", "logP": 3.12},
      {"smiles": "O=c1c2ccccc2ncn1O", "logP": -0.45},
      {"smiles": "CCCCCCNC(=O)CNC(=O)C=[N+]=[N-]", "logP": 1.51},
      {"smiles": "O=C(NO)Nc1ccc(Cl)cc1", "logP": 1.39},
      {"smiles": "O=C1CN=C(c2ccc(Cl)cc2)c2cc(Br)ccc2N1", "logP": 3.78},
      {"smiles": "c1ccc(-c2ncnc3ccccc23)cc1", "logP": 2.71},
      {"smiles": "CC(=O)Nc1c(C)c(C)c(O)c(C)c1C", "logP": 0.95},
      {"smiles": "CC1=C(C(=O)O)SCCO1", "logP": 0.04},
      {"smiles": "CCN1CCCCCC1=O", "logP": 0.65},
      {"smiles": "COC(=O)C(C#N)=NNc1cc(Cl)c(Cl)c(Cl)c1", "logP": 5.22},
      {"smiles": "CN(C)N=Nc1ccc(S(N)(=O)=O)cc1", "logP": 1.06},
      {"smiles": "Nc1nc(=O)c2ccccc2[nH]1", "logP": 0.6},
      {"smiles": "CCN(CC)CC(=O)NC1c2ccccc2-c2ccccc21", "logP": 3.64},
      {"smiles": "C#CCOn1c(=O)[nH]c(C)c(Br)c1=O", "logP": -0.1},
      {"smiles": "CCNP(=O)(OC)SC", "note": "(stereo unspecified)", "logP": 0.07},
      {"smiles": "CN(C)CCC=C1c2ccccc2CCc2c(Cl)cccc21", "logP": 5.55},
      {"smiles": "CCCCCCCCCCOn1c(=O)[nH]c(C)c(Br)c1=O", "logP": 4.65},
      {"smiles": "COC12C(COC(N)=O)C3=C(C(=O)C(C)=C(Nc4cccnc4)C3=O)N1CC1NC12", "note": "(stereo unspecified)", "logP": 0.52},
      {"smiles": "NC(=O)c1ccc(Cl)nn1", "logP": 0},
      {"smiles": "COc1cc(-n2c(=O)cc(C)n2C)ncn1", "logP": 0.3},
      {"smiles": "OCCCCn1nnc2ccccc21", "logP": 1.03},
      {"smiles": "CN(C)/N=N/c1ccccc1Cl", "logP": 3.03},
      {"smiles": "CS(=O)(=O)N(c1ccccc1)S(C)(=O)=O", "logP": 0.62},
      {"smiles": "CCCCCCCC(=O)NN", "logP": 1},
      {"smiles": "C#CC(C)(C)N(C)C(C)C", "logP": 2.29},
      {"smiles": "Clc1cccc(C2NCCS2)c1", "note": "(stereo unspecified)", "logP": 2.04},
      {"smiles": "CSCC1=C(C(=O)O)N2C(=O)C(NC(=O)Cc3cccs3)C2SC1", "note": "(stereo unspecified)", "logP": 1.01},
      {"smiles": "COc1cc(Cc2cnc(N)nc2N)cc(OC)c1C(N)=O", "logP": -0.85},
      {"smiles": "CSC(C)=NOC(=O)N(C)SN(C)C(=O)OC(C)(C)C", "logP": 2.8},
      {"smiles": "COc1cccc(C2=NCC(=O)Nc3ccc(Cl)cc32)c1", "logP": 3.14},
      {"smiles": "CC(C)(C)C1=Nc2ccc(Cl)cc2S(=O)(=O)N1", "logP": 2.4},
      {"smiles": "O=C(CN1CCCCC1)Nc1ccc(Cl)cc1", "logP": 3.34},
      {"smiles": "COc1cc(-n2nc(C)cc2OC)nc(C)n1", "logP": 1.54}
    ]}
  ]
}
